From patent US11384055B2 (BIOMARIN PHARMACEUTICAL INC., priority 2017, dated 2022)

Target: T1, Human GO (Homo sapiens, UniProt Q9UJM8)
T1 construct: purchased Novus Biologicals NBP1-72412
T1 sequence (Q9UJM8 1-370): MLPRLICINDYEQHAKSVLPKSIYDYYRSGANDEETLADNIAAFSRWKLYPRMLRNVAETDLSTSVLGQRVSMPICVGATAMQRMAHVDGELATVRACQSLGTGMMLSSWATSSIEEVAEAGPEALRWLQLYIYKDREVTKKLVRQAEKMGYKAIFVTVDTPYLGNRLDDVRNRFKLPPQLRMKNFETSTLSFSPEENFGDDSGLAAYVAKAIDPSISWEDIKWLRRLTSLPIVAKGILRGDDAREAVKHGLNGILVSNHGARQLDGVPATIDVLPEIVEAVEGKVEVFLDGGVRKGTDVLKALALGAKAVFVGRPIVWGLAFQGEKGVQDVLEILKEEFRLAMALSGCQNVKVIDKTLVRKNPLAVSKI
Assay: GO enzymatic assay (coupled fluorescence/HRP assay, glycolate substrate)
Assay type: biochemical
Details: not given
How it was run: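 Human GO incubated with glycolate substrate in 50 mM potassium phosphate, pH 7, with varying inhibitor concentrations. Activity read by coupled HRP fluorescence. IC50 taken from variable-slope sigmoidal dose-response fits of percent inhibition relative to DMSO control.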

Structure (SMILES) | IC50 [nM]
O=C(O)c1[nH]nnc1-c1ccc(Cl)c(Cl)c1 [Compound 125, 4-(3,4-dichlorophenyl)-1H-1,2,3-triazole-5-carboxylic acid] | < 100
O=C(O)c1[nH]nnc1-c1ccc(-c2ccc(Cl)cc2)cc1 [Compound 126, 2,2,2-trifluoroacetate] | < 100
O=C(O)c1[nH]nnc1-c1ccc(-c2ccc(OC(F)(F)F)cc2)cc1 [Compound 128] | 100 to 1000
O=C(O)c1[nH]nnc1-c1ccc(-c2ccc(Cl)cc2)c(Cl)c1 [Compound 130, 2,2,2-trifluoroacetate] | < 100
O=C(O)c1[nH]nnc1-c1ccc2cc(Cl)ccc2c1 [Compound 133, 4-(6-chloronaphthalen-2-yl)-1H-1,2,3-triazole-5-carboxylic acid] | < 100
O=C(O)c1[nH]nnc1-c1cccc(OC(F)(F)F)c1 [Compound 135, 4-(3-(trifluoromethoxy)phenyl)-1H-1,2,3-triazole-5-carboxylic acid] | < 100

Same assay, conditions: Table 1; read-out: Range (range of IC50 values calculated from the enzymatic assays)

Structure (SMILES) | IC50 [nM]
O=C(O)c1[nH]nnc1Oc1ccc2ncccc2c1 [Compound 120, 4-(quinolin-6-yloxy)-1H-1,2,3-triazole-5-carboxylic acid 2,2,2-trifluoroacetate] | 100 to 1000
O=C(O)c1[nH]nnc1Oc1ccc2cnccc2c1 [Compound 121, 4-(isoquinolin-6-yloxy)-1H-1,2,3-triazole-5-carboxylic acid 2,2,2-trifluoroacetate] | 100 to 1000
O=C(O)c1[nH]nnc1Oc1ccc(-c2ccc3ncccc3c2)cc1 [Compound 122, 5-(4-(quinolin-6-yl)phenoxy)-1H-1,2,3-triazole-4-carboxylic acid] | < 100
O=C(O)c1[nH]nnc1-c1csc(-c2ccc(Cl)c(Cl)c2)n1 [Compound 124, 4-(2-(3,4-dichlorophenyl)thiazol-4-yl)-1H-1,2,3-triazole-5-carboxylic acid] | < 100
O=C(O)c1[nH]nnc1-c1ccc(Oc2ccc(Cl)cc2)cc1 [Compound 127, 4-(4-(4-chlorophenoxy)phenyl)-1H-1,2,3-triazole-5-carboxylic acid] | < 100
O=C(O)c1[nH]nnc1-c1cccc(-c2ccc(Cl)c(Cl)c2)c1 [Compound 129, 4-(3′,4′-dichloro-[1,1′-biphenyl]-3-yl)-1H-1,2,3-triazole-5-carboxylic acid] | < 100
O=C(O)c1[nH]nnc1-c1cccc(Oc2ccc(Cl)c(Cl)c2)c1 [Compound 131, 4-(3-(3,4-dichlorophenoxy)phenyl)-1H-1,2,3-triazole-5-carboxylic acid 2,2,2-trifluoroacetate] | < 100
O=C(O)c1[nH]nnc1-c1ccc2cc(Cl)ccc2n1 [Compound 132, 4-(6-chloroquinolin-2-yl)-1H-1,2,3-triazole-5-carboxylic acid 2,2,2-trifluoroacetate] | < 100
O=C(O)c1[nH]nnc1-c1nccc2ccc(Cl)cc12 [Compound 134, 4-(7-chloroisoquinolin-1-yl)-1H-1,2,3-triazole-5-carboxylic acid] | > 10000
O=C(O)c1[nH]nnc1-c1ccc(OC(F)(F)F)cc1 [Compound 136, 4-(4-(trifluoromethoxy)phenyl)-1H-1,2,3-triazole-5-carboxylic acid] | 100 to 1000
O=C(O)c1[nH]nnc1-c1ccc(OCC2CCCC2)cc1 [Compound 137, 4-(4-(cyclopentylmethoxy)phenyl)-1H-1,2,3-triazole-5-carboxylic acid] | 100 to 1000
O=C(O)c1[nH]nnc1-c1ccc(OC2CCCC2)cc1 [Compound 138, 4-(4-(cyclopentyloxy)phenyl)-1H-1,2,3-triazole-5-carboxylic acid] | 100 to 1000
O=C(O)c1[nH]nnc1-c1ccc(-c2ccc(OC(F)(F)F)cc2)c(Cl)c1 [Compound 139, 4-(2-chloro-4′-(trifluoromethoxy)-[1,1′-biphenyl]-4-yl)-1H-1,2,3-triazole-5-carboxylic acid 2,2,2-trifluoroacetate] | 100 to 1000
O=C(O)c1[nH]nnc1C1=Cc2ccccc2CC1 [Compound 140, 4-(3,4-dihydronaphthalen-2-yl)-1H-1,2,3-triazole-5-carboxylic acid 2,2,2-trifluoroacetate] | < 100
O=C(O)c1[nH]nnc1C1CCc2ccccc2C1 (centres unmarked) [Compound 141, 4-(1,2,3,4-tetrahydronaphthalen-2-yl)-1H-1,2,3-triazole-5-carboxylic acid 2,2,2-trifluoroacetate] | 100 to 1000
CC(C)N1CCc2cc(-c3nn[nH]c3C(=O)O)ccc2C1 [Compound 143, 4-(2-isopropyl-1,2,3,4-tetrahydroisoquinolin-6-yl)-1H-1,2,3-triazole-5-carboxylic acid 2,2,2-trifluoroacetate] | > 10000
CC(C)N1CCc2ccc(-c3nn[nH]c3C(=O)O)cc2C1 [Compound 144, 4-(2-isopropyl-1,2,3,4-tetrahydroisoquinolin-7-yl)-1H-1,2,3-triazole-5-carboxylic acid 2,2,2-trifluoroacetate] | > 10000
O=C(O)c1[nH]nnc1-c1ccc(OC(F)(F)F)cn1 [Compound 145, 4-(5-(trifluoromethoxy)pyridin-2-yl)-1H-1,2,3-triazole-5-carboxylic acid 2,2,2-trifluoroacetate] | 1000 to 10000

Structure (SMILES) | IC50 [nM]
O=C(O)c1[nH]nnc1C(=O)N1CCC(c2ccc(Cl)cc2)C1 (centres unmarked) [Compound 146, 4-(3-(4-chlorophenyl)pyrrolidine-1-carbonyl)-1H-1,2,3-triazole-5-carboxylic acid] | 1000 to 10000
O=C(O)c1[nH]nnc1C(=O)N1Cc2ccc(Cl)cc2C1 [Compound 147, 4-(5-chloroisoindoline-2-carbonyl)-1H-1,2,3-triazole-5-carboxylic acid] | 1000 to 10000
O=C(O)c1[nH]nnc1C(=O)N1CCc2cc(Cl)ccc21 [Compound 148, 4-(5-chloroindoline-1-carbonyl)-1H-1,2,3-triazole-5-carboxylic acid] | < 100
O=C(O)c1[nH]nnc1C(=O)N1CCC(c2ccc(Cl)cc2Cl)C1 (centres unmarked) [Compound 149, 4-(3-(2,4-dichlorophenyl)pyrrolidine-1-carbonyl)-1H-1,2,3-triazole-5-carboxylic acid] | 1000 to 10000
O=C(O)c1[nH]nnc1C(=O)N1CCC(c2ccc(Cl)c(Cl)c2)C1 (centres unmarked) [Compound 150, 4-(3-(3,4-dichlorophenyl)pyrrolidine-1-carbonyl)-1H-1,2,3-triazole-5-carboxylic acid] | 1000 to 10000
O=C(O)c1[nH]nnc1SCc1ccc(Cl)c2ccccc12 [Compound 152, 4-(((4-chloronaphthalen-1-yl)methyl)thio)-1H-1,2,3-triazole-5-carboxylic acid 2,2,2-trifluoroacetate] | < 100
O=C(O)c1[nH]nnc1Nc1cc(Cl)cc(Cl)c1 [Compound 153, 4-((3,5-dichlorophenyl)amino)-1H-1,2,3-triazole-5-carboxylic acid] | 100 to 1000
O=C(O)c1[nH]nnc1Nc1cc(Cl)ccc1Cl [Compound 154, 4-((2,5-dichlorophenyl)amino)-1H-1,2,3-triazole-5-carboxylic acid 2,2,2-trifluoroacetate] | 1000 to 10000
O=C(O)c1[nH]nnc1Nc1ccc(-c2ccc(OC(F)(F)F)c(Cl)c2)cc1 [Compound 155, 4-((3′-chloro-4′-(trifluoromethoxy)-[1,1′-biphenyl]-4-yl)amino)-1H-1,2,3-triazole-5-carboxylic acid] | < 100
O=C(O)c1[nH]nnc1Oc1ccc(-c2ccc(OC(F)(F)F)c(Cl)c2)cc1 [Compound 156, 4-((3′-chloro-4′-(trifluoromethoxy)-[1,1′-biphenyl]-4-yl)oxy)-1H-1,2,3-triazole-5-carboxylic acid] | < 100
O=C(O)c1[nH]nnc1Oc1ccc(-c2cccc(C(=O)N3CCCCC3)c2)cc1 [Compound 157, 4-((3′-(piperidine-1-carbonyl)-[1,1′-biphenyl]-4-yl)oxy)-1H-1,2,3-triazole-5-carboxylic acid 2,2,2-trifluoroacetate] | < 100
O=C(O)c1[nH]nnc1COc1ccc2cc(Cl)ccc2c1 [Compound 158, 4-(((6-chloronaphthalen-2-yl)oxy)methyl)-1H-1,2,3-triazole-5-carboxylic acid 2,2,2-trifluoroacetate] | < 100
O=C(O)c1[nH]nnc1Oc1ccc(-c2cccc(CN3CCCCC3)c2)cc1 [Compound 160, 4-((3′-(piperidin-1-ylmethyl)-[1,1′-biphenyl]-4-yl)oxy)-1H-1,2,3-triazole-5-carboxylic acid 2,2,2-trifluoroacetate] | 100 to 1000
O=C(O)c1[nH]nnc1Oc1ccc(-c2ccc(C(F)(F)F)cc2)cc1 [Compound 161, 4-((4′-(trifluoromethyl)-[1,1′-biphenyl]-4-yl)oxy)-1H-1,2,3-triazole-5-carboxylic acid] | < 100
O=C(O)c1[nH]nnc1Oc1ccc(-c2cccc(OC3CCCC3)c2)cc1 [Compound 162, 4-((3′-(cyclopentyloxy)-[1,1′-biphenyl]-4-yl)oxy)-1H-1,2,3-triazole-5-carboxylic acid] | < 100
O=C(O)c1[nH]nnc1Oc1ccc(-c2ccc(Cl)c(OC(F)(F)F)c2)cc1 [Compound 163, 4-((4′-chloro-3′-(trifluoromethoxy)-[1,1′-biphenyl]-4-yl)oxy)-1H-1,2,3-triazole-5-carboxylic acid] | < 100
O=C(O)c1[nH]nnc1Sc1ccc(-c2cccc(N3CCCCC3)c2)cc1 [Compound 164, 4-((3′-(piperidin-1-yl)-[1,1′-biphenyl]-4-yl)thio)-1H-1,2,3-triazole-5-carboxylic acid 2,2,2-trifluoroacetate] | < 100
